Data from publication PMC4389225, “Triaminopyrimidine is a fast-killing and long-acting antimalarial clinical candidate” (Nature Communications, 2015).
Several values for one entry are separate records, joined by “and”; a condition that tells them apart may be missing. Identical values can stand only once. Like-named read-outs stand apart in the source and are kept apart here.

Key:
Dd2-PfCRT = assay: SYBR green growth assay, Dd2-PfCRT mutant; format: cell-based, P. falciparum
Experimental: (§1) To eliminate overlapping mode of action with known targets, cross-resistance testing of representative TAPs against drug-resistant lines with well-characterized mutations in Pf dihydroorotate dehydrogenase, Pf heat-shock protein 90, Pf chloroquine resistance transporter[25] or Pf cytochrome b reduction site[26] was performed. […] Assays were carried out in 384-well format with three technical replicates within an assay day and biological replicates carried out on three different assay days to assign a final EC50.
(§2) A representative TAP (compound 6) was tested for its activity against a panel of P. falciparum strains known to harbour mutations conferring resistance to antimalarial agents under development. Artesunate and amodiaquine were included as additional control […]
(§3) Values are the means ± standard deviation derived from three independent assays performed

Dd2-CYTbQi = assay: SYBR green growth assay, Dd2-CYTbQi mutant; format: cell-based, P. falciparum
Experimental: as §1, §2, §3

Dd2-HSP90 = assay: microbe, parasite or virus in culture; format: cell-based, P. falciparum
Experimental: as §1, §2, §3

Dd2-DHODH = assay: SYBR green growth assay, Dd2-DHODH mutant; format: cell-based, P. falciparum
Experimental: as §1, §2, §3

Dd2 [1] = assay: SYBR green growth assay, Dd2 (parental); format: cell-based, P. falciparum; conditions: mean ± SD
Experimental: as §1, §2, §3

Pf DD2 = assay: microbe, parasite or virus in culture; format: cell-based; conditions: Plasmodium falciparum
Description: (§4) tested in duplicate from two independent experiments using a SYBR-Green based assay2.
(§5) (1 picture or pasted object on this page, not shown here)

Pf 7G8 = assay: microbe, parasite or virus in culture; format: cell-based; conditions: Plasmodium falciparum
Description: as §4, §5

Pf K1 = assay: microbe, parasite or virus in culture; format: cell-based; conditions: Plasmodium falciparum
Description: as §4, §5

Pf NF54 = assay: microbe, parasite or virus in culture; format: cell-based; conditions: Plasmodium falciparum
Description: as §4, §5

Pf SB1 = assay: microbe, parasite or virus in culture; format: cell-based; conditions: Plasmodium falciparum
Description: as §4, §5

Pf W2 = assay: microbe, parasite or virus in culture; format: cell-based; conditions: Plasmodium falciparum
Description: as §4, §5

Dd2-6R F4 D4 = assay: SYBR green growth assay, Dd2-6R F4 D4; conditions: Plasmodium falciparum
Description: (§7) The drug was then washed off and the parasites were allowed to recover in normal growth media.

Dd2-6R F2 B5 = assay: SYBR green growth assay, Dd2-6R F2 B5; conditions: for IC50: Plasmodium falciparum, DD2
Description: as §7

Dd2-6R F4 G7 = assay: SYBR green growth assay, Dd2-6R F4 G7; conditions: Plasmodium falciparum
Description: as §7

Dd2-6R F2 C5 = assay: SYBR green growth assay, Dd2-6R F2 C5; conditions: Plasmodium falciparum
Description: as §7

Dd2-6R F2 D8 = assay: SYBR green growth assay, Dd2-6R F2 D8; conditions: Plasmodium falciparum
Description: as §7

Dd2 DHODH DSM265 = assay: [3H]-hypoxanthine incorporation assay, Dd2 DHODH DSM265 resistant; format: cell-based; conditions: Plasmodium falciparum
Experimental: (§6) Supplementary Table 3: Compound 9 and 12 retain their activity against Pf strains harbouring mutations to novel antimalarial agents in clinical development. Compound 9 and 12 were tested for their antiplasmodial activity against a panel of Pf strains known to harbour mutations conferring resistance to novel agents under clinical development. Parasite growth inhibition is measured using the [3H]-hypoxanthine incorporation assay. IC50s are established for each strain (n ≥2) and compared to the IC50 of Dd2 (standard pan-resistant […]

Dd2 [2] = assay: [3H]-hypoxanthine incorporation assay, Dd2; format: cell-based, Plasmodium falciparum
Experimental: 9 and 12 were tested for their antiplasmodial activity against a panel of Pf strains known to harbour mutations conferring resistance to novel agents under clinical development. Parasite growth inhibition is measured using the [3H]-hypoxanthine incorporation assay. IC50s are established for each strain (n ≥2) and compared to the IC50 of Dd2 (standard pan-resistant

Dd2 bc-1 ELQ-300 = assay: [3H]-hypoxanthine incorporation assay, Dd2 bc-1 ELQ-300 resistant; format: cell-based, Plasmodium falciparum; conditions: Dd2 bc-1 ELQ-300; read-out: IC50
Experimental: as §6

Dd2 PfATP4 NITD609 = assay: [3H]-hypoxanthine incorporation assay, Dd2 PfATP4 NITD609 resistant; format: cell-based; conditions: Plasmodium falciparum
Experimental: as §6

hERG = target: T1, hERG (Homo sapiens, UniProt Q12809); assay: electrophysiology-based hERG assay using IonWorks HT (CHO cells); format: cell-based; conditions: hERG IC50
T1 construct: expressed in transfected cells; host or cells: CHO cells
T1 sequence (Q12809 whole entry): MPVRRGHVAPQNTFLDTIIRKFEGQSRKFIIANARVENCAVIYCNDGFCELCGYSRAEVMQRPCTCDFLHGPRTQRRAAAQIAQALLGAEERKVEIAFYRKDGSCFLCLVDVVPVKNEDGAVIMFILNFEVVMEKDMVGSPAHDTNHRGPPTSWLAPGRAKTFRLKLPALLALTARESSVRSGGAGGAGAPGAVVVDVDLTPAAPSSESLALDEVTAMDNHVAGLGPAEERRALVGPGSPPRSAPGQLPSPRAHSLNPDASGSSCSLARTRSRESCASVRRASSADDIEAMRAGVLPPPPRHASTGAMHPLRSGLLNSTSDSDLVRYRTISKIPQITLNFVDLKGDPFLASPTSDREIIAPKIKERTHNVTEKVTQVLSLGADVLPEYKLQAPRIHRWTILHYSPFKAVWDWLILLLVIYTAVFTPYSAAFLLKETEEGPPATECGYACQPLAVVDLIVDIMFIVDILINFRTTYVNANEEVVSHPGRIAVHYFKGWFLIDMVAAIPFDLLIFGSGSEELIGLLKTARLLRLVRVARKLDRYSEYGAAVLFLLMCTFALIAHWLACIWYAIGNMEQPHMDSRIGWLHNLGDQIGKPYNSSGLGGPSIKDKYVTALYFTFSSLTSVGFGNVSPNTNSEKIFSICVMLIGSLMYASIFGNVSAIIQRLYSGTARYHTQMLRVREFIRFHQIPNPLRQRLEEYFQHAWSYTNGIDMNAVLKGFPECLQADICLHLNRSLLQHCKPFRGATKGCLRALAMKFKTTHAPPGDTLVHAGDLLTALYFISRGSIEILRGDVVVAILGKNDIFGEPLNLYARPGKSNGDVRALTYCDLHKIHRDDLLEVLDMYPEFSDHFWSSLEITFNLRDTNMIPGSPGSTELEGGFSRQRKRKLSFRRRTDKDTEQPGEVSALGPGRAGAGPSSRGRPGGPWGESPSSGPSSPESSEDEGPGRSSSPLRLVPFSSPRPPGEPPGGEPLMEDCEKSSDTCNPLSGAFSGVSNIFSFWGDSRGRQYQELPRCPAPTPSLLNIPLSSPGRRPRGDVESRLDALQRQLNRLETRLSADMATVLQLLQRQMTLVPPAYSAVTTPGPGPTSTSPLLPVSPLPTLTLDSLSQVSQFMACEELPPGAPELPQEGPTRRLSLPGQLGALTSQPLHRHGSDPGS
Experimental: hERG IC50 was determined in an electrophysiology-based hERG assay using IonWorks HT (CHO cells) as described earlier.

[3] = target: T2, acetylcholine esterase (AChE) (Homo sapiens, UniProt P22303); assay: AChE enzyme activity assay (CEREP); format: biochemical; conditions: read-out: AChE IC50
T2 construct: purchased CEREP, France (external assay service) 0363
T2 sequence (P22303 32-614): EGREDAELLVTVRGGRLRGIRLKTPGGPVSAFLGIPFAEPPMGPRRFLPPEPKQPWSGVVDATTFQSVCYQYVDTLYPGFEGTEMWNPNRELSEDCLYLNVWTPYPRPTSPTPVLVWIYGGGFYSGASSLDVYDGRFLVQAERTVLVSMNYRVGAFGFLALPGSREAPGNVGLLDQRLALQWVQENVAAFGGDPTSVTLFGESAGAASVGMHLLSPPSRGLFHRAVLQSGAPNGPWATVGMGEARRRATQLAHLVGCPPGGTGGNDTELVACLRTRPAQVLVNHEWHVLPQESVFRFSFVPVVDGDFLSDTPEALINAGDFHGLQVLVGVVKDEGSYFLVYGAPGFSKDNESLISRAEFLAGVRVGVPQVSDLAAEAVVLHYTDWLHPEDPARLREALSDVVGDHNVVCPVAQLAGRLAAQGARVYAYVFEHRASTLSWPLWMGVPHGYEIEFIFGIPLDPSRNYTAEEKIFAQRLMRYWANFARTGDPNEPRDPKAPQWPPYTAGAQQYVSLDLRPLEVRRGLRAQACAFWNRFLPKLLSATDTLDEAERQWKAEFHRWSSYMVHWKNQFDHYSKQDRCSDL
Experimental: An in vitro pharmacological profiling panel was specifically designed for the detection of potential high- risk clinical adverse drug reactions. The panel comprised of 26 diverse targets (6 enzymes, 2 transporters, 9 G-protein-coupled receptors (GPCRs), 5 ion channels along with hERG, M2, alpha1A and AchE) and was conduced externally by CEREP, France […]. […] Detailed methodology for in vitro pharmacological profiling assays provided by CEREP can be found at http://www.cerep.fr, with specific reference to the AChE (cat. no. 0363), Muscarinic M1 receptor (cat. no. 0091) and Adrenergic α1A receptor (cat. no. 2338) assays. For enzyme and kinase assays, the results were expressed as a percent inhibition of control-specific activity obtained in the presence of the test compound. The IC50 values (concentration causing a half-maximal inhibition of control-specific activity) and Hill coefficients (nH) were determined by nonlinear regression analysis of the inhibition/concentration–response curves using Hill equation curve fitting as described earlier.

[4] = Plasmodium falciparum, DD2, Dd2, Supplementary Table 2
[5] = Plasmodium falciparum, DD2, Dd2 parental, Supplementary Table 13

With CCN(CC)Cc1cc(Nc2ccnc3cc(Cl)ccc23)ccc1O [Amodiaquine] the IC50 (Dd2-PfCRT; Plasmodium falciparum, DD2) was 8.86 ± 1 nM, the IC50 (Dd2-CYTbQi; Plasmodium falciparum, DD2) was 9.9 ± 3 nM and the IC50 (Dd2-HSP90; Plasmodium falciparum, DD2) was 8.96 ± 0.8 nM. It also gave an IC50 (Dd2-DHODH; Plasmodium falciparum, DD2) of 10.7 ± 2 nM and an IC50 (Dd2 [1]; [4]) of 9.83 ± 0.4 nM.
C[C@@H]1CC[C@H]2[C@@H](C)C(=O)O[C@@H]3O[C@@]4(C)CC[C@@H]1[C@]32OO4 [Artemisinin] showed an IC50 (Pf DD2) of 10.3 ± 2 nM, an IC50 (Pf 7G8) of 1.3 ± 0.1 nM and an IC50 (Pf K1) of 6.5 ± 2 nM. The IC50 (Pf NF54) was 7 ± 4 nM, the IC50 (Pf SB1) was 16.6 ± 5 nM and the IC50 (Pf W2) was 6.5 ± 1 nM.
For C[C@H]1[C@H](OC(=O)CCC(=O)O)O[C@@H]2O[C@@]3(C)CC[C@H]4[C@H](C)CC[C@@H]1[C@@]24OO3 [Artesunate], the IC50 (Dd2-PfCRT; Plasmodium falciparum, DD2) was 1.84 ± 0.3 nM, the IC50 (Dd2-CYTbQi; Plasmodium falciparum, DD2) was 1.26 ± 0.4 nM and the IC50 (Dd2-6R F4 D4) was 1.6 ± 0.9 nM. It also gave an IC50 (Dd2-HSP90; Plasmodium falciparum, DD2) of 1.29 ± 0.2 nM, an IC50 (Dd2-6R F2 B5) of 1.6 ± 0.2 nM and an IC50 (Dd2-6R F4 G7) of 1.6 nM. The IC50 (Dd2-DHODH; Plasmodium falciparum, DD2) was 1.81 ± 0.3 nM, the IC50 (Dd2-6R F2 C5) was 1.2 ± 0.1 nM and the IC50 (Dd2 [1]; [4]) was 1.51 ± 0.2 nM. For the same compound, the IC50 (Dd2 [1]; [5]) was 2.6 ± 1.3 nM and the IC50 (Dd2-6R F2 D8) was 1.4 ± 0.1 nM.
With O=C1C(O)=C([C@H]2CC[C@H](c3ccc(Cl)cc3)CC2)C(=O)c2ccccc21 [Atovaquone] the IC50 (Pf DD2) was 2 ± 0.02 nM, the IC50 (Pf 7G8) was 2.3 ± 0.7 nM and the IC50 (Pf K1) was 2.3 ± 0.8 nM. For the same compound, the IC50 (Pf SB1) was over 2000 nM.
CCN(CC)CCCC(C)Nc1ccnc2cc(Cl)ccc12 (stereo not shown) [Chloroquine] gave an IC50 (Pf SB1) of 11.8 ± 4.5 nM.
With Cc1cc(Nc2ccc(S(F)(F)(F)(F)F)cc2)n2nc(C(C)(F)F)nc2n1 [DSM265, reference compound] the IC50 (Dd2 DHODH DSM265) was 48 nM.
For COc1cc2[nH]c(C)c(-c3ccc(Oc4ccc(OC(F)(F)F)cc4)cc3)c(=O)c2cc1Cl [ELQ-300, reference compound], the IC50 (Dd2 [2]; Dd2, [3H]-hypoxanthine, read-out: IC50) was 20 nM and the IC50 (Dd2 bc-1 ELQ-300) was 125 nM.
With COC1=C2C[C@@H](C)C[C@H](OC)[C@H](O)[C@@H](C)/C=C(\C)[C@H](OC(N)=O)[C@@H](OC)/C=C\C=C(/C)C(=O)NC(=CC1=O)C2=O [Geldanamycin] the IC50 (Dd2-PfCRT; Plasmodium falciparum, DD2) was 204 ± 20 nM, the IC50 (Dd2-CYTbQi; Plasmodium falciparum, DD2) was 169 ± 40 nM and the IC50 (Dd2-DHODH; Plasmodium falciparum, DD2) was 257 ± 40 nM. For the same compound, the IC50 (Dd2 [1]; [4]) was 176 ± 30 nM.
Cc1nc2c(C#N)cccc2n1-c1ccc(C(=O)NC2CC2)s1 [Genz-669178] was tested, and the IC50 (Dd2-PfCRT; Dd2-PfCRT, mean ± SD, read-out: IC50) was 5.07 ± 4 nM, the IC50 (Dd2-CYTbQi; Dd2-CYTbQi, mean ± SD, read-out: IC50) was 9.94 ± 0.9 nM and the IC50 (Dd2-HSP90; Dd2-HSP90, mean ± SD, read-out: IC50) was 16.2 ± 2 nM. It also gave an IC50 (Dd2-DHODH; Dd2-DHODH, mean ± SD, read-out: IC50) of 76.8 ± 10 nM and an IC50 (Dd2 [1]; Dd2, Supplementary Table 2, read-out: IC50) of 5.79 ± 1 nM.
CCCCN(CCCC)CC(O)c1cc(Cl)cc2c1-c1ccc(Cl)cc1/C2=C/c1ccc(Cl)cc1 (stereo not shown) [Lumefantrine] was tested, and the IC50 (Dd2-6R F4 D4) was 6.4 ± 2.4 nM, the IC50 (Dd2-6R F2 B5) was 6.8 ± 2 nM and the IC50 (Dd2-6R F4 G7) was 5.1 nM. For the same compound, the IC50 (Dd2-6R F2 C5) was 5.7 ± 1 nM, the IC50 (Dd2 [1]; [5]) was 15.6 ± 4.8 nM and the IC50 (Dd2-6R F2 D8) was 6 ± 1.7 nM.
In the case of OC(c1cc(C(F)(F)F)nc2c(C(F)(F)F)cccc12)C1CCCCN1 (stereo not shown) [Mefloquine], the IC50 (Dd2-6R F4 D4) is reported as 11.7 nM, the IC50 (Dd2-6R F2 B5) is reported as 11.7 ± 2.6 nM and the IC50 (Dd2-6R F4 G7) is reported as 10.7 nM. It also gave an IC50 (Dd2-6R F2 C5) of 12.1 nM, an IC50 (Dd2 [1]; [5]) of 30.1 ± 7.2 nM and an IC50 (Dd2-6R F2 D8) of 12 nM.
With C[C@H]1Cc2c([nH]c3cc(Cl)c(F)cc23)[C@@]2(N1)C(=O)Nc1ccc(Cl)cc12 [NITD609, reference compound] the IC50 (Dd2 PfATP4 NITD609) was 1.7 nM and the IC50 (Dd2 [2]; Plasmodium falciparum, DD2) was 0.6 nM.
CCc1nc(N)nc(N)c1-c1ccc(Cl)cc1 [Pyrimethamine] gave an IC50 (Pf DD2) of 13800 ± 8620 nM, an IC50 (Pf 7G8) of 10000 ± 1260 nM and an IC50 (Pf K1) of 8560 ± 1980 nM. It also gave an IC50 (Pf NF54) of 28.3 ± 11 nM, an IC50 (Pf SB1) of 10.8 ± 4 nM and an IC50 (Pf W2) of 15400 ± 2830 nM.
CNc1nc(Nc2ccc(OCC(F)(F)F)c(C)n2)ncc1N1CCN[C@H](C)C1 [compound 6] gave an IC50 (Dd2-PfCRT; Plasmodium falciparum, DD2) of 18.9 ± 1 nM, an IC50 (Dd2-CYTbQi; Plasmodium falciparum, DD2) of 25.7 ± 5 nM and an IC50 (Dd2-6R F4 D4) of 98.9 nM. For the same compound, the IC50 (Dd2-HSP90; Plasmodium falciparum, DD2) was 27.9 ± 7 nM, the IC50 (Dd2-6R F2 B5) was 102 nM and the “increase in IC50 compared with the parental Dd2 line” value (Dd2-6R F2 B5; compound 6-resistant Dd2-6R clones (five clones)) was 3-6 fold and 3 fold. The IC50 (Dd2-6R F4 G7) was 112 nM, the IC50 (Dd2-DHODH; Plasmodium falciparum, DD2) was 23.2 ± 5 nM and the IC50 (Dd2-6R F2 C5) was 96.3 nM. For the same compound, the IC50 (Dd2 [1]; [4]) was 29.5 ± 3 nM, the IC50 (Dd2 [1]; [5]) was 38.7 ± 1.1 nM and the IC50 (Dd2-6R F2 D8) was 95.7 nM.
Cc1nc(Nc2ncc(N3CCN[C@H](C)C3)c(Nc3cc(C)n(C)n3)n2)ccc1F [compound 7, (R)-N4-(1,5-dimethyl-1H-pyrazol-3-yl)-N2-(5-fluoro-6-methylpyridin-2-yl)-5-(3-methylpiperazin-1-yl)pyrimidine-2,4-diamine] showed an IC50 (hERG) of over 33000 nM and an IC50 [3] of 66000 nM.
